Measured values taken from ChEMBL document CHEMBL1143427, “Interactions of ceftobiprole with beta-lactamases from molecular classes A to D” (Antimicrob Agents Chemother, 2007).

Key:
Klebsiella pneumoniae [1] = experiment: Activity of Klebsiella pneumoniae TEM26 assessed as drug hydrolysis by spectrophotometry
Klebsiella pneumoniae [2] = experiment: Ratio of Kcat to Km of Klebsiella pneumoniae TEM26 assessed as drug hydrolysis by spectrophotometry
[3] = molecular target: Beta-lactamase CTX-M (Escherichia coli) (UniProt Q9EXV5); experiment: Activity of Escherichia coli CTX-M-15 assessed as drug hydrolysis by spectrophotometry relative to cephaloridine; set-up: scale not given: the % may be the effect or the level left
[4] = molecular target: Beta-lactamase CTX-M (Escherichia coli) (UniProt Q9EXV5); experiment: Ratio of Kcat to Km of Escherichia coli CTX-M-15 assessed as drug hydrolysis by spectrophotometry relative to cephaloridine; set-up: scale not given: the % may be the effect or the level left
[5] = molecular target: T1, Beta-lactamase (Klebsiella oxytoca) (UniProt Q8RT60); experiment: Activity of Klebsiella oxytoca beta-lactamase K1 assessed as drug hydrolysis by spectrophotometry relative to cephaloridine; set-up: scale not given: the % may be the effect or the level left
T1 sequence (whole entry): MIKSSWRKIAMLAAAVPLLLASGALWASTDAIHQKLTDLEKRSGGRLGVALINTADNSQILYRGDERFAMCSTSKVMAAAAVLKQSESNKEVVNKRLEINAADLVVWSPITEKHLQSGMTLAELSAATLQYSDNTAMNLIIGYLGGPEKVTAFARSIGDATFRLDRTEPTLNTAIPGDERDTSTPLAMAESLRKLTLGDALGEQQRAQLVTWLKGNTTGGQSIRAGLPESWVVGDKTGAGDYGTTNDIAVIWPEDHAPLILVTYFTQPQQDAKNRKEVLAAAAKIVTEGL

[6] = molecular target: T1, Beta-lactamase (Klebsiella oxytoca); experiment: Ratio of Kcat to Km of Klebsiella oxytoca beta-lactamase K1 assessed as drug hydrolysis by spectrophotometry relative to cephaloridine; set-up: scale not given: the % may be the effect or the level left
Klebsiella pneumoniae [7] = experiment: Activity of Klebsiella pneumoniae TEM26 assessed as drug hydrolysis by spectrophotometry relative to cephaloridine; set-up: scale not given: the % may be the effect or the level left
Klebsiella pneumoniae [8] = experiment: Ratio of Kcat to Km of Klebsiella pneumoniae TEM26 assessed as drug hydrolysis by spectrophotometry relative to cephaloridine; set-up: scale not given: the % may be the effect or the level left
[9] = molecular target: Beta-lactamase TEM (Escherichia coli) (UniProt P62593); experiment: Ratio of Kcat to Km of Escherichia coli TEM1 assessed as drug hydrolysis by spectrophotometry relative to cephaloridine; set-up: scale not given: the % may be the effect or the level left
Beta-lactamase TEM (Escherichia coli), sequence (P62593 whole entry): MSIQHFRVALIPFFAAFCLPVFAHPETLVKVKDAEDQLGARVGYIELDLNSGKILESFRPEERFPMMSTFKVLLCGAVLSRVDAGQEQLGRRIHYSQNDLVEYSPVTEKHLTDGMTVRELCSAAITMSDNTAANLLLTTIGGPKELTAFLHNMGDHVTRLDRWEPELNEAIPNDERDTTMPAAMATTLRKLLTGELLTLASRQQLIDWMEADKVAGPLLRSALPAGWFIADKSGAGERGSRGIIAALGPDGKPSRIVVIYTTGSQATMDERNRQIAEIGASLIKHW

[10] = molecular target: T2, Beta-lactamase SHV-1 (Klebsiella pneumoniae) (UniProt P0AD64); experiment: Activity of Klebsiella pneumoniae SHV1 assessed as drug hydrolysis by spectrophotometry relative to cephaloridine; set-up: scale not given: the % may be the effect or the level left
T2 sequence (whole entry): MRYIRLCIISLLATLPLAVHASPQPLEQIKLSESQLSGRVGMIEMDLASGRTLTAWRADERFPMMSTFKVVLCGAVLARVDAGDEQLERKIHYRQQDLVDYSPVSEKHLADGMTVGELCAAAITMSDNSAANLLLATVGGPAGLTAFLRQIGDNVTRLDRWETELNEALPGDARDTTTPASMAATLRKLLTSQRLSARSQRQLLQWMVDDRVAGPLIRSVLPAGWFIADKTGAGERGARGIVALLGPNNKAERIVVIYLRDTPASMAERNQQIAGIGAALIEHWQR

[11] = molecular target: T2, Beta-lactamase SHV-1 (Klebsiella pneumoniae); experiment: Ratio of Kcat to Km of Klebsiella pneumoniae SHV1 assessed as drug hydrolysis by spectrophotometry relative to cephaloridine; set-up: scale not given: the % may be the effect or the level left
[12] = molecular target: T3, Carbapenem-hydrolyzing beta-lactamase SME-3 (Serratia marcescens) (UniProt Q6PRG8); experiment: Activity of Serratia marcescens SME3 assessed as drug hydrolysis by spectrophotometry relative to cephaloridine; set-up: scale not given: the % may be the effect or the level left
T3 sequence (whole entry): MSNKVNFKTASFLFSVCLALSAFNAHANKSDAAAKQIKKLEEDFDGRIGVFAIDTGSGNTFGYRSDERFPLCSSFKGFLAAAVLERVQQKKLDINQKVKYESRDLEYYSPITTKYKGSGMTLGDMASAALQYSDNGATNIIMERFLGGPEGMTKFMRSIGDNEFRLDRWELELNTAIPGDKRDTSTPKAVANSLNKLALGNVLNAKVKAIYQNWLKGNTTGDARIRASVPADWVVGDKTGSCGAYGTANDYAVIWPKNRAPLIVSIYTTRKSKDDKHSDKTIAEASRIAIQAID

[13] = molecular target: T3, Carbapenem-hydrolyzing beta-lactamase SME-3 (Serratia marcescens); experiment: Ratio of Kcat to Km of Serratia marcescens SME3 assessed as drug hydrolysis by spectrophotometry relative to cephaloridine; set-up: scale not given: the % may be the effect or the level left
[14] = molecular target: Beta-lactamase VIM-2 (Pseudomonas aeruginosa) (UniProt Q9K2N0); experiment: Activity of Pseudomonas aeruginosa VIM2 assessed as drug hydrolysis by spectrophotometry relative to cephaloridine; set-up: scale not given: the % may be the effect or the level left
[15] = molecular target: Metallo beta-lactamase (Pseudomonas aeruginosa) (UniProt Q6TUJ4); experiment: Ratio of Kcat to Km of Pseudomonas aeruginosa IMP1 assessed as drug hydrolysis by spectrophotometry relative to cephaloridine; set-up: scale not given: the % may be the effect or the level left
Metallo beta-lactamase (Pseudomonas aeruginosa), sequence (Q6TUJ4 as listed by the source): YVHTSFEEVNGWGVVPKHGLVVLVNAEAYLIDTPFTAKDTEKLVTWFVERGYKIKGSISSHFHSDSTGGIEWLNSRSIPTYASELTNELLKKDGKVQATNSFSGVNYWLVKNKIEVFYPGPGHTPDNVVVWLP

[16] = molecular target: Beta-lactamase VIM-2 (Pseudomonas aeruginosa) (UniProt Q9K2N0); experiment: Ratio of Kcat to Km of Pseudomonas aeruginosa VIM2 assessed as drug hydrolysis by spectrophotometry relative to cephaloridine; set-up: scale not given: the % may be the effect or the level left
[17] = molecular target: Beta-lactamase (Morganella morganii) (UniProt P94958); experiment: Activity of Morganella morganii AmpC assessed as drug hydrolysis by spectrophotometry relative to cephaloridine; set-up: scale not given: the % may be the effect or the level left
[18] = molecular target: Beta-lactamase TEM (Escherichia coli) (UniProt P62593); experiment: Activity of Escherichia coli TEM1 assessed as drug hydrolysis by spectrophotometry relative to cephaloridine; set-up: scale not given: the % may be the effect or the level left
[19] = molecular target: Beta-lactamase (Staphylococcus aureus) (UniProt P00807); experiment: Ratio of Kcat to Km of Staphylococcus aureus betalactamase PC1 assessed as drug hydrolysis by spectrophotometry relative to cephaloridine; set-up: scale not given: the % may be the effect or the level left
Beta-lactamase (Staphylococcus aureus), sequence (P00807 whole entry): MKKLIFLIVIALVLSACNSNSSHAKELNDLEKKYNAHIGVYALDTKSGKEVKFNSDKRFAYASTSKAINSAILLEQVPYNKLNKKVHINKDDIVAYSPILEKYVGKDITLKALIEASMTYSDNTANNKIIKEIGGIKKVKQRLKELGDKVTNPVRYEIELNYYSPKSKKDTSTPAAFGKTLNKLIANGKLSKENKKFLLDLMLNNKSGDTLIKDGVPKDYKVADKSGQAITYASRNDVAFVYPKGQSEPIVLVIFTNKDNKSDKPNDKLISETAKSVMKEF

[20] = molecular target: Beta-lactamase (Staphylococcus aureus) (UniProt P00807); experiment: Activity of Staphylococcus aureus betalactamase PC1 assessed as drug hydrolysis by spectrophotometry relative to cephaloridine; set-up: scale not given: the % may be the effect or the level left
[21] = molecular target: Beta-lactamase (Morganella morganii) (UniProt P94958); experiment: Ratio of Kcat to Km of Morganella morganii AmpC assessed as drug hydrolysis by spectrophotometry relative to cephaloridine; set-up: scale not given: the % may be the effect or the level left
[22] = molecular target: T4, Beta-lactamase (Providencia stuartii) (UniProt O69773); experiment: Activity of Providencia stuartii AmpC assessed as drug hydrolysis by spectrophotometry relative to cephaloridine; set-up: scale not given: the % may be the effect or the level left
T4 sequence (whole entry): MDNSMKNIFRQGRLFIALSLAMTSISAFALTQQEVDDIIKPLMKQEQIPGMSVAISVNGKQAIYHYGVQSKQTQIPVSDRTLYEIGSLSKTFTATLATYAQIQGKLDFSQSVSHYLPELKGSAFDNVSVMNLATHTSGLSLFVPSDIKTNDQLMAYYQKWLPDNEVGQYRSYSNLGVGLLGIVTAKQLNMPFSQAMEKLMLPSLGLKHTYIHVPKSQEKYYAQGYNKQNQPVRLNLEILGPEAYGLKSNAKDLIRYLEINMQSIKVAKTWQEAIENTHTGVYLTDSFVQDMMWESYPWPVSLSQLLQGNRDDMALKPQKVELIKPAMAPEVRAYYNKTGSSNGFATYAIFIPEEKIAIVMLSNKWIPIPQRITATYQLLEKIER

[23] = molecular target: T4, Beta-lactamase (Providencia stuartii); experiment: Ratio of Kcat to Km of Providencia stuartii AmpC assessed as drug hydrolysis by spectrophotometry relative to cephaloridine; set-up: scale not given: the % may be the effect or the level left
[24] = molecular target: Beta-lactamase (Pseudomonas aeruginosa (strain ATCC 15692 / PAO1 / 1C / PRS 101 / LMG12228)) (UniProt P24735); experiment: Activity of Pseudomonas aeruginosa 4352 AmpC assessed as drug hydrolysis by spectrophotometry relative to cephaloridine; set-up: scale not given: the % may be the effect or the level left
Beta-lactamase (Pseudomonas aeruginosa (strain ATCC 15692 / PAO1 / 1C / PRS 101 / LMG12228)), sequence (P24735 27-397 limits assumed): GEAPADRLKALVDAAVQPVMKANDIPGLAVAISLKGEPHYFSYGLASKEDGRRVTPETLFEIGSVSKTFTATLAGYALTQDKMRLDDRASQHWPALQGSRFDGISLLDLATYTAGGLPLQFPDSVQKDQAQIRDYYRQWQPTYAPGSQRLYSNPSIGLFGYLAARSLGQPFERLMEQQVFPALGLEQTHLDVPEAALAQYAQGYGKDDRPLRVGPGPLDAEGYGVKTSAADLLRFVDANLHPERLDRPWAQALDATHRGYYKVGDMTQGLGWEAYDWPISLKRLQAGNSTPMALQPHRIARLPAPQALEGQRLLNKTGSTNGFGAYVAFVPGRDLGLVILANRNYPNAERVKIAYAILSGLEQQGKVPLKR

[25] = molecular target: Beta-lactamase (Pseudomonas aeruginosa (strain ATCC 15692 / PAO1 / 1C / PRS 101 / LMG12228)) (UniProt P24735); experiment: Ratio of Kcat to Km of Pseudomonas aeruginosa 4352 AmpC assessed as drug hydrolysis by spectrophotometry relative to cephaloridine; set-up: scale not given: the % may be the effect or the level left
[26] = molecular target: Beta-lactamase (Pseudomonas aeruginosa (strain ATCC 15692 / PAO1 / 1C / PRS 101 / LMG12228)) (UniProt P24735); experiment: Activity of Pseudomonas aeruginosa 18SH AmpC assessed as drug hydrolysis by spectrophotometry relative to cephaloridine; set-up: scale not given: the % may be the effect or the level left
[27] = molecular target: Beta-lactamase (Pseudomonas aeruginosa (strain ATCC 15692 / PAO1 / 1C / PRS 101 / LMG12228)) (UniProt P24735); experiment: Ratio of Kcat to Km of Pseudomonas aeruginosa 18SH AmpC assessed as drug hydrolysis by spectrophotometry relative to cephaloridine; set-up: scale not given: the % may be the effect or the level left
[28] = molecular target: Beta-lactamase (Pseudomonas aeruginosa (strain ATCC 15692 / PAO1 / 1C / PRS 101 / LMG12228)) (UniProt P24735); experiment: Activity of Pseudomonas aeruginosa MK-1184 AmpC assessed as drug hydrolysis by spectrophotometry relative to cephaloridine; set-up: scale not given: the % may be the effect or the level left
[29] = molecular target: Beta-lactamase (Pseudomonas aeruginosa (strain ATCC 15692 / PAO1 / 1C / PRS 101 / LMG12228)) (UniProt P24735); experiment: Ratio of Kcat to Km of Pseudomonas aeruginosa MK-1184 AmpC assessed as drug hydrolysis by spectrophotometry relative to cephaloridine; set-up: scale not given: the % may be the effect or the level left
[30] = molecular target: Beta-lactamase (Serratia marcescens) (UniProt P18539); experiment: Activity of Serratia marcescens AmpC assessed as drug hydrolysis by spectrophotometry relative to cephaloridine; set-up: scale not given: the % may be the effect or the level left
Beta-lactamase (Serratia marcescens), sequence (P18539 whole entry): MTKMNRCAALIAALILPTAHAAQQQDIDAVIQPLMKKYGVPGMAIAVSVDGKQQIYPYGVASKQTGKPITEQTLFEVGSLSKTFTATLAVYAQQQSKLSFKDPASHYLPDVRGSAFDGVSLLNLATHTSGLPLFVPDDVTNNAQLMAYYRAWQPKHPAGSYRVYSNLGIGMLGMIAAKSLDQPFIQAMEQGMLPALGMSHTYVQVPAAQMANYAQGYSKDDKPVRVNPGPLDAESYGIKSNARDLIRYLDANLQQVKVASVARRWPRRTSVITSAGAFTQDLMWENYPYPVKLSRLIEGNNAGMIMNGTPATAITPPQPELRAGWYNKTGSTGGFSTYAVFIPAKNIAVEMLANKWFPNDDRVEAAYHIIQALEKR

[31] = molecular target: Beta-lactamase (Serratia marcescens) (UniProt P18539); experiment: Ratio of Kcat to Km of Serratia marcescens AmpC assessed as drug hydrolysis by spectrophotometry relative to cephaloridine; set-up: scale not given: the % may be the effect or the level left
[32] = molecular target: Beta-lactamase (Pseudomonas aeruginosa (strain ATCC 15692 / PAO1 / 1C / PRS 101 / LMG12228)) (UniProt P24735); experiment: Activity of Pseudomonas aeruginosa AmpC assessed as drug hydrolysis by spectrophotometry relative to cephaloridine; set-up: scale not given: the % may be the effect or the level left
[33] = molecular target: Beta-lactamase (Pseudomonas aeruginosa (strain ATCC 15692 / PAO1 / 1C / PRS 101 / LMG12228)) (UniProt P24735); experiment: Ratio of Kcat to Km of Pseudomonas aeruginosa AmpC assessed as drug hydrolysis by spectrophotometry relative to cephaloridine; set-up: scale not given: the % may be the effect or the level left

| Compound | Km (Klebsiella pneumoniae [1]) [µM] | kcat (Klebsiella pneumoniae [1]) [s⁻¹] | kcat/Km (Klebsiella pneumoniae [2]) [M⁻¹ s⁻¹] | Activity [3] [%] | Activity [4] [%] | Activity [5] [%] | Activity [6] [%] | Activity (Klebsiella pneumoniae [7]) [%] | Activity (Klebsiella pneumoniae [8]) [%] | Activity [9] [%] | Activity [10] [%] | Activity [11] [%] | Activity [12] [%] | Activity [13] [%] | Activity [14] [%] | Activity [15] [%] | Activity [16] [%] | Activity [17] [%] | Activity [18] [%] | Activity [19] [%] | also measured |
| --- | --- | --- | --- | --- | --- | --- | --- | --- | --- | --- | --- | --- | --- | --- | --- | --- | --- | --- | --- | --- | --- |
| O=C(Cc1cccs1)N[C@@H]1C(=O)N2C(C(=O)[O-])=C(C[n+]3ccccc3)CS[C@H]12 | 66 | 37 | 560000 |  |  |  |  |  |  |  |  |  |  |  |  |  |  |  |  |  |  |
| CO/N=C(\C(=O)N[C@@H]1C(=O)N2C(C(=O)O)=C(COC(C)=O)CS[C@H]12)c1csc(N)n1 | 15 | 2.9 | 190000 | 95 | 140 | 13 | 2.3 | 7.8 | 34 |  |  |  |  |  |  |  |  |  |  |  |  |
| Nc1nc(/C(=N/O)C(=O)N[C@@H]2C(=O)N3C(C(=O)O)=C(/C=C4\CCN([C@@H]5CCNC5)C4=O)CS[C@H]23)ns1 | 63 | 6.9 | 110000 | 140 | 290 | 33 | 100 | 19 | 20 | 1.6 | 6 | 7.4 | 0.49 | 0.73 | 13 | 990 | 380 | < 0.0064 | 0.9 | 24 | Activity [20]: 17%; Activity [21]: < 0.071%; Activity [22]: 0.03%; Activity [23]: 0.11%; Activity [24]: < 0.024%; Activity [25]: 0.14%; Activity [26]: 0.028%; Activity [27]: 0.71%; Activity [28]: 2%; Activity [29]: 1%; Activity [30]: < 0.14%; Activity [31]: < 0.27%; Activity [32]: 1400%; Activity [33]: 9900% |
| CC(C)(O/N=C(\C(=O)N[C@@H]1C(=O)N2C(C(=O)[O-])=C(C[n+]3ccccc3)CS[C@H]12)c1csc(N)n1)C(=O)O | 130 | 95 | 730000 | 2.3 | 0.37 | 0.0026 | 0.0018 | 260 | 130 | 0.00067 | 0.0026 | 0.00084 | 0.013 | 0.031 | 0.19 | 120 | 1.7 | < 0.14 | 0.00023 | 0.92 | Activity [20]: 0.25%; Activity [21]: < 2.5%; Activity [22]: 0.036%; Activity [23]: 1.3%; Activity [24]: < 0.01%; Activity [25]: 0.42%; Activity [26]: < 0.1%; Activity [27]: 0.83%; Activity [28]: 3.1%; Activity [29]: 5.3%; Activity [30]: < 0.0025%; Activity [31]: < 0.0028%; Activity [32]: < 0.059% |
